Measurements: patent US8716475B2, “2-aminopyrimidine modulators of the histamine H4 receptor” (Janssen Pharmaceutica NV, priority 2007, dated 2014)

Target: T1, human H4 receptor (Homo sapiens, UniProt Q9H3N8)
T1 construct: expressed in transfected cells
Assay: Binding Assay on Recombinant Human Histamine H4 Receptor
Conditions: Table 2; [3H] histamine competition binding, membranes of SK-N-MC cells transfected with human H4 receptor; average of results
Outline: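 Radioligand binding used membranes from SK-N-MC cells stably or transiently expressing human H4, prepared in 50 mM Tris/5 mM EDTA. Nonspecific binding was defined with 100 μM histamine. Bound radioactivity was counted after filtration on PEI-treated GF/C filters, and ">" values are the highest concentration tested.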

SMILES | Ki
NCCNc1cc(C2CCOC2)nc(N)n1 (stereo not shown) [Example 195, N^4-(2-Amino-ethyl)-6-(tetrahydro-furan-3-yl)-pyrimidine-2,4-diamine] | 59 nM
NCCCNc1cc(C2CCOC2)nc(N)n1 (stereo not shown) [Example 196, N^4-(3-Amino-propyl)-6-(tetrahydro-furan-3-yl)-pyrimidine-2,4-diamine] | 203 nM
CNCCN(C)c1cc(C2CCOC2)nc(N)n1 (stereo not shown) [Example 197, N^4-Methyl-N^4-(2-methylamino-ethyl)-6-(tetrahydro-furan-3-yl)-pyrimidine-2,4-diamine] | 204 nM
CNCCNc1cc(C2CCOC2)nc(N)n1 (stereo not shown) [Example 198, N^4-(2-Methylamino-ethyl)-6-(tetrahydro-furan-3-yl)-pyrimidine-2,4-diamine] | 2450 nM
Cc1nc(N)nc(N2CCN(C)CC2)c1F [Example 199, 5-Fluoro-4-methyl-6-(4-methyl-piperazin-1-yl)-pyrimidin-2-ylamine] | 69 nM
Cc1nc(N)nc(N2CC3CCCNC3C2)c1F (stereo not shown) [Example 200, 5-Fluoro-4-methyl-6-(octahydro-pyrrolo[3,4-b]pyridin-6-yl)-pyrimidin-2-ylamine] | 235 nM
Cc1nc(N)nc(N2CCNCC2)c1F [Example 201, 5-Fluoro-4-methyl-6-piperazin-1-yl-pyrimidin-2-ylamine] | 391 nM
CN[C@@H]1CCN(c2nc(N)nc(C)c2F)C1 [Example 202, (R)-5-Fluoro-4-methyl-6-(3-methylamino-pyrrolidin-1-yl)-pyrimidin-2-ylamine] | 515 nM
Cc1nc(N)nc(N(C)CCN)c1F [Example 203, N^4-(2-Amino-ethyl)-5-fluoro-6,N^4-dimethyl-pyrimidine-2,4-diamine] | 4230 nM
Nc1nc(Cc2ccncc2)cc(N2CCNCC2)n1 [Example 204, 4-piperazin-1-yl-6-pyridin-4-ylmethyl-pyrimidin-2-ylamine] | 45 nM
CN[C@@H]1CCN(c2cc(Cc3ccncc3)nc(N)n2)C1 [Example 205, (R)-4-(3-Methylamino-pyrrolidin-1-yl)-6-pyridin-4-ylmethyl-pyrimidin-2-ylamine] | 230 nM
CN1CCN(c2cc(Cc3ccncc3)nc(N)n2)CC1 [Example 206, 4-(4-Methyl-piperazin-1-yl)-6-pyridin-4-ylmethyl-pyrimidin-2-ylamine] | 81 nM
Nc1nc(Cc2ccsc2)cc(N2CC3CCCNC3C2)n1 (stereo not drawn) [Example 211, 4-(cis-Octahydro-pyrrolo[3,4-b]pyridin-6-yl)-6-thiophen-3-ylmethyl-pyrimidin-2-ylamine] | 4 nM
Nc1nc(Cc2cccs2)cc(N2CC3CCCNC3C2)n1 (stereo not drawn) [Example 217, 4-(cis-Octahydro-pyrrolo[3,4-b]pyridin-6-yl)-6-thiophen-2-ylmethyl-pyrimidin-2-ylamine] | 9 nM
COCc1cc(NCCN)nc(N)n1 [Example 219, N^4-(2-Amino-ethyl)-6-methoxymethyl-pyrimidine-2,4-diamine] | 890 nM
CN[C@@H]1CCN(c2cc(COC)nc(N)n2)C1 [Example 221, (R)-4-Methoxymethyl-6-(3-methylamino-pyrrolidin-1-yl)-pyrimidin-2-ylamine] | 43 nM
COCc1cc(N2C[C@H]3CCCN[C@H]3C2)nc(N)n1 [Example 226, (R,R)-4-Methoxymethyl-6-(octahydro-pyrrolo[3,4-b]pyridin-6-yl)-pyrimidin-2-ylamine] | 14 nM
CN[C@@H]1CCN(c2cc(CC3CCCO3)nc(N)n2)C1 (stereo partly drawn) [Example 228, (R)-4-(3-Methylamino-pyrrolidin-1-yl)-6-(tetrahydro-furan-2-ylmethyl)-pyrimidin-2-ylamine] | 91 nM
CN1C[C@@H]2CN(c3cc(CC4CCCO4)nc(N)n3)C[C@@H]2C1 (stereo partly drawn) [Example 229, 4-(cis-5-Methyl-hexahydro-pyrrolo[3,4-c]pyrrol-2-yl)-6-(tetrahydro-furan-2-ylmethyl)-pyrimidin-2-ylamine] | 360 nM
Nc1nc(CC2CCCO2)cc(N2CC3CCCNC3C2)n1 (stereo not drawn) [Example 231, 4-(cis-Octahydro-pyrrolo[3,4-b]pyridin-6-yl)-6-(tetrahydro-furan-2-ylmethyl)-pyrimidin-2-ylamine] | 59 nM
Nc1nc(Cc2ccc(Cl)cc2)cc(N2CC[C@@H](N)C2)n1 [Example 235, (R)-4-(3-Amino-pyrrolidin-1-yl)-6-(4-chloro-benzyl)-pyrimidin-2-ylamine] | 140 nM
CN1C[C@@H]2CN(c3cc(Cc4ccc(Cl)cc4)nc(N)n3)C[C@@H]2C1 [Example 236, 4-(4-Chloro-benzyl)-6-(cis-5-methyl-hexahydro-pyrrolo[3,4-c]pyrrol-2-yl)-pyrimidin-2-ylamine] | 249 nM
Nc1nc(Cc2ccc(Cl)cc2)cc(N2C[C@H]3CNC[C@H]3C2)n1 [Example 237, 4-(4-Chloro-benzyl)-6-(cis-hexahydro-pyrrolo[3,4-c]pyrrol-2-yl)-pyrimidin-2-ylamine] | 257 nM
CN(CCN)c1cc(Cc2ccc(Cl)cc2)nc(N)n1 [Example 238, N^4-(2-Amino-ethyl)-6-(4-chloro-benzyl)-N^4-methyl-pyrimidine-2,4-diamine] | 1770 nM

Further compounds by falling Ki, results first:

Ki | SMILES
32 nM | Nc1nc(Cc2cccs2)cc(N2CC[C@@H](N)C2)n1 [Example 216, (R)-4-(3-Amino-pyrrolidin-1-yl)-6-thiophen-2-ylmethyl-pyrimidin-2-ylamine]
32 nM | CC(C)OCc1cc(N2CCN(C)CC2)nc(N)n1 [Example 246, 4-Isopropoxymethyl-6-(4-methyl-piperazin-1-yl)-pyrimidin-2-ylamine]
31 nM | CCOCc1cc(N2CC[C@@H](NC)C2)nc(N)n1 [Example 241, (R)-Ethoxymethyl-6-(3-methylamino-pyrrolidin-1-yl)-pyrimidin-2-ylamine]
29 nM | CCOCc1cc(N2CCN(C)CC2)nc(N)n1 [Example 239, 4-Ethyoxymethyl-6-(4-methyl-piperazin-1-yl)-pyrimidin-2-ylamine]
26 nM | COCc1cc(N2CCNCC2)nc(N)n1 [Example 224, 4-Methoxymethyl-6-piperazin-1-yl-pyrimidin-2-ylamine]
25 nM | Nc1nc(CC2CCCO2)cc(N2CCNCC2)n1 (stereo not shown) [Example 230, 4-piperazin-1-yl-6-(tetrahydro-furan-2-ylmethyl)-pyrimidin-2-ylamine]
25 nM | CCOCc1cc(N2CCNCC2)nc(N)n1 [Example 240, 4-Ethoxymethyl-6-piperazin-1-yl-pyrimidin-2-ylamine]
23 nM | COCc1cc(N2CC[C@@H](N)C2)nc(N)n1 [Example 222, (R)-4-(3-Amino-pyrrolidin-1-yl)-6-methoxymethyl-pyrimidin-2-ylamine]
22 nM | CCOCc1cc(N2CC[C@@H](N)C2)nc(N)n1 [Example 242, (R)-Ethoxymethyl-6-(3-amino-pyrrolidin-1-yl)-pyrimidin-2-ylamine]
20 nM | NCCNc1cc(Cc2cccs2)nc(N)n1 [Example 218, N^4-(2-Amino-ethyl)-6-thiophen-2-ylmethyl-pyrimidine-2,4-diamine]
19 nM | CN[C@@H]1CCN(c2cc(Cc3cccs3)nc(N)n2)C1 [Example 214, (R)-4-(3-Methylamino-pyrrolidin-1-yl)-6-thiophen-2-ylmethyl-pyrimidin-2-ylamine]
18 nM | CN[C@@H]1CCN(c2cc(Cc3ccc(Cl)cc3)nc(N)n2)C1 [Example 234, (R)-4-(4-Chloro-benzyl)-6-(3-methylamino-pyrrolidin-1-yl)-pyrimidin-2-ylamine]
17 nM | Nc1nc(C2CCOC2)cc(N2CCCNCC2)n1 (stereo not shown) [Example 192, 4-[1,4]-Diazepan-1-yl-6-(tetrahydro-furan-3-yl)-pyrimidin-2-ylamine]
17 nM | CN1CCN(c2cc(CC3CCCO3)nc(N)n2)CC1 (stereo not shown) [Example 227, 4-(4-Methyl-piperazin-1-yl)-6-(tetrahydro-furan-2-ylmethyl)-pyrimidin-2-ylamine]
15 nM | COCc1cc(N2CCN(C)CC2)nc(N)n1 [Example 223, 4-Methoxymethyl-6-(4-methyl-piperazin-1-yl)-pyrimidin-2-ylamine]
12 nM | CN[C@@H]1CCN(c2cc(C3CCOC3)nc(N)n2)C1 (stereo partly drawn) [Example 191, (R)-4-(3-Methylamino-pyrrolidin-1-yl)-6-(tetrahydro-furan-3-yl)-pyrimidin-2-ylamine]
12 nM | Nc1nc(Cc2ccsc2)cc(N2CC[C@@H](N)C2)n1 [Example 210, (R)-4-(3-Amino-pyrrolidin-1-yl)-6-thiophen-3-ylmethyl-pyrimidin-2-ylamine]
12 nM | NCCNc1cc(Cc2ccsc2)nc(N)n1 [Example 212, N^4-(2-Amino-ethyl)-6-thiophen-3-ylmethyl-pyrimidine-2,4-diamine]
12 nM | Nc1nc(Cc2ccc(Cl)cc2)cc(N2CCNCC2)n1 [Example 233, 4-(4-Chloro-benzyl)-6-piperazin-1-yl-pyrimidin-2-ylamine]
8 nM | CN[C@@H]1CCN(c2cc(Cc3ccsc3)nc(N)n2)C1 [Example 208, (R)-4-(3-Methylamino-pyrrolidin-1-yl)-6-thiophen-3-ylmethyl-pyrimidin-2-ylamine]
8 nM | CN1CCN(c2cc(Cc3ccc(Cl)cc3)nc(N)n2)CC1 [Example 232, 4-(4-Chloro-benzyl)-6-(4-methyl-piperazin-1-yl)-pyrimidin-2-ylamine]
6 nM | Nc1nc(Cc2cccs2)cc(N2CCNCC2)n1 [Example 215, 4-piperazin-1-yl-6-thiophen-2-ylmethyl-pyrimidin-2-ylamine]
4 nM | CN1CCN(c2cc(Cc3cccs3)nc(N)n2)CC1 [Example 213, 4-(4-Methyl-piperazin-1-yl)-6-thiophen-2-ylmethyl-pyrimidin-2-ylamine]
2 nM | CN1CCN(c2cc(Cc3ccsc3)nc(N)n2)CC1 [Example 207, 4-(4-Methyl-piperazin-1-yl)-6-thiophen-3-ylmethyl-pyrimidin-2-ylamine]
2 nM | Nc1nc(Cc2ccsc2)cc(N2CCNCC2)n1 [Example 209, 4-piperazin-1-yl-6-thiophen-3-ylmethyl-pyrimidin-2-ylamine]
